Assay type in all cases: cell-based
For assay [1], the system named is A-549, lung cancer. Nature of the assay: In vitro cytotoxicity, MTT assay, A-549. To be noted: A549, 96 h, A-549 human lung cancer cells, 4 days incubation. The procedure:
(§1) Three human cancer cell lines (A-549, lung cancer; SK-BR-3, breast cancer; MKN-45, stomach cancer) were tested in MTT assay. These cell lines were grown in RPMI 1640 medium supplemented with penicillin-streptomycin (100 units/mL) and 10% heat-inactivated fetal bovine serum under standard culture condition (20% O2 and 5% CO2, 37° C.). Single-cell suspensions were prepared by trypsinization and pipette disaggregation. The number of cells for each cell line plated in 96-well microtiter plates was determined from the growth curve obtained in MTT assay. Test compounds were diluted from stock solution in DMSO into fresh medium to a 10× concentration. Cells were inoculated into each well in 180 μL of medium and eight different concentrations of 20 μL of test compounds were added to each well. The plates were then incubated for 4 days at 37° C., 5% CO2. After 4 days of culture, 0.1 mg (20 μL of 5 mg/mL) of MTT was added to each well. The plates were then incubated at 37° C. for 4 hours. After the plates were centrifuged at 1,000 rpm for 10 minutes, the supernatant was aspirated. 150 μL of DMSO was added to each well to solubilize formazan crystals. The plates were read immediately at 550 nm on Elisa reader (Dynatech, MR 5000).

For assay [2], the system named is SK-BR-3, breast cancer. Nature of the assay: In vitro cytotoxicity, MTT assay, SK-BR-3. As to conditions: 96 h, SK-BR-3 human breast cancer cells, 4 days incubation. The procedure:
as §1

Assay [3] relates to MKN-45, stomach cancer. Nature of the assay: In vitro cytotoxicity, MTT assay, MKN-45. To be noted: 96 h, MKN-45 human stomach cancer cells, 4 days incubation. The procedure:
as §1

For the compound `O=C(C=Cc1ccc(CNC(=O)c2ccc(N3CCN(Cc4cccnc4)CC3)cc2)cc1)NO` [Example 1, N-[4-(2-Hydroxycarbamoylvinyl)benzyl]-4-(4-pyridin-3-ylmethylpiperazin-1-yl)benzamide], the results for the IC50 in assay [1], in assay [2] and in assay [3] were 12 µM, 3.19 µM and 38.6 µM, respectively.
In the same order, the values of `O=C(C=Cc1ccc(CNC(=O)c2ccc(N3CCN(Cc4ccccn4)CC3)cc2)cc1)NO` [Example 2, N-[4-(2-Hydroxycarbamoylvinyl)benzyl]-4-(4-pyridin-2-ylmethylpiperazin-1-yl)benzamide] are 1.65 µM, 0.27 µM and 2.94 µM.
The matching figures for `O=C(C=Cc1ccc(CNC(=O)c2ccc(N3CCN(Cc4ccncc4)CC3)cc2)cc1)NO` [Example 3, N-[4-(2-Hydroxycarbamoylvinyl)benzyl]-4-(4-pyridin-4-ylmethylpiperazin-1-yl)benzamide]: 3.02 µM, 1.72 µM and 56.1 µM.
As to `O=C(C=Cc1ccc(CNC(=O)c2ccccn2)cc1)NO` [Example 4, N-[4-(2-Hydroxycarbamoylvinyl)benzyl]picolinamide], the figures for the IC50 in assay [1], in assay [2] and in assay [3] were 2.23 µM, 0.87 µM and 3.64 µM, respectively.
The matching figures for `O=C(C=Cc1ccc(CNC(=O)c2ccc(N3CCCC3)cc2)cc1)NO` [Example 5, N-[4-(2-Hydroxycarbamoylvinyl)benzyl]-4-pyrrolidin-1-ylbenzamide]: 0.35 µM, 0.11 µM and 0.8 µM.
The matching figures for `CN(C)c1ccc(C(=O)NCc2ccc(C=CC(=O)NO)cc2)cc1` [Example 6, 4-Dimethylamino-N-[4-(2-hydroxycarbamoylvinyl)benzyl]benzamide]: 0.48 µM, 0.16 µM and 0.83 µM.
The matching figures for `O=C(C=Cc1ccc(CNC(=O)c2cccnc2)cc1)NO` [Example 7, N-[4-(2-Hydroxycarbamoylvinyl)benzyl]nicotinamide]: 2.89 µM, 1.28 µM and 4.98 µM.
Regarding `O=C(C=Cc1ccc(CNC(=O)OCc2cccnc2)cc1)NO` [Example 8, [4-(2-Hydroxycarbamoylvinyl)benzyl]carbamic acid pyridin-3-ylmethyl ester], the IC50 in assay [1] stood at 2.61 µM; in assay [2], 1.12 µM; in assay [3], 3.34 µM.
The matching figures for `O=C(C=Cc1ccc(CS(=O)(=O)Nc2cccnc2)cc1)NO` [Example 9, N-Hydroxy-3-[4-(pyridin-3-ylsulfamoylmethyl)phenyl]acrylamide]: 37 µM, 22.9 µM and 62 µM.
Regarding `O=C(C=Cc1ccc(CS(=O)(=O)c2ccccc2)cc1)NO` [Example 10, 3-[4-(Benzenesulfonylmethyl)phenyl]-N-hydroxyacrylamide], the IC50 is 11.1 µM in assay [1], 4.57 µM in assay [2] and 8.34 µM in assay [3].

(Values after patent US7495022B2, “α,β-unsaturated hydroxamic acid derivatives and their use as histone deacetylase inhibitors” (SK Chemicals Co., Ltd., priority 2002, dated 2009).)
